# Source: patent US5084082A, “Soybean plants with dominant selectable trait for herbicide resistance” (priority 1990, dated 1992)
# Experiments:
# Type in all cases: in vivo, soybean
# Williams 82 [1] = assay: Test A postemergence herbicide spray, greenhouse pots
# From the text: (§1) In the first post-emergence test, two true-breeding resistant mutant lines, W19 and W20, were compared to previously isolated tolerant mutants and wild-type Williams 82. Eighteen pots (20 cm diameter) of each soybean line (2 seeds per pot) were planted using a standard sterile potting mix. When the seedlings reached the second trifoliolate stage, plants were thinned back to one plant per pot. Each pot was then sprayed with a specific herbicide treatment using a conveyor belt spray apparatus to emulate field application. The nine different herbicide treatments included one rate (8 g/ha) of Compound 1 and two rates (8 and 32 g/ha) each of four other sulfonylurea herbicides (Compounds 2,3,7 and 8) (see Table VI) using a factorial treatment design with 2 replications.
# (§2) In both postemergence tests, plants were returned to the greenhouse after treatment and provided with ample light, moisture, and nutrients to support healthy plant growth. Two to three ratings per pot were recorded over a three-week period and averaged to obtain a single value for each pot For each herbicide, analysis of variance on injury ratings was performed separately. Fisher's least significant difference (LSD) was used to determine the significance of line mean differences at each herbicide rate using the 95% level of confidence. […]
# mutant W19 = assay: as above
# From the text: as §1, §2
# Mutant 1-184A = assay: as above
# From the text: as §1, §2
# mutant W20 [2] = assay: as above
# From the text: as §1, §2
# W20 seedlings = assay: Large-scale hydroponic screening pilot with Compound 8; conditions: 300 ppb used to irrigate the hydroponic system
# From the text: The first screening protocol used was identical to the "Large-Scale Hydroponic Screening System" described previously except for the fact that 300 ppb of Compound 8 was used as the selective agent instead of 100 ppb of Compound 1. […] Rare seedlings developing true leaves became very obvious against the background of inhibited seedlings.
# mutant line W20 = assay: Test B postemergence cross resistance test; conditions: Glycine max, post-emergence
# How it was run: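 Soybean mutant lines and Williams 82 sprayed postemergence at the second trifoliolate stage with ALS inhibitors (sulfonylureas, imidazolinones), each at two rates. Injury rated two to three times per pot over three weeks in the greenhouse and averaged; ANOVA per herbicide, Fisher's LSD at 95%.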
# Williams 82 [3] = assay: Postemergence herbicide spray test of W4-4 (Table VII-A); conditions: two weeks after treatment
# Procedure: (§3) To investigate this hypothesis, a postemergence herbicide spray test was conducted to compare the reaction of W4-4 to both W20 and wild-type Williams. The applicant was particularly interested in the resistance of W4-4 to herbicide treatments that were injurious to both Williams and W20 in a previous test (Table VII). […] Twenty-four plants each of W4-4, W20, and Williams were planted in separate 10 cm pots and allowed to grow to the second trifoliolate stage. Each pot constituted a single experimental unit receiving a single herbicide treatment. Herbicide treatments (Table VIIA) were applied as described for the first postemergence test and were replicated twice. Control plants were sprayed with the spray carrier solution only (water with 0.25% X77 surfactant). At two weeks after treatment, each plant was rated for % herbicide injury as described in Table VIII. Analysis of variance on injury ratings was performed separately for each herbicide to calculate treatment means and standard errors. Fisher's least significant difference (LSD) was used to determine the significance of line means differences at each herbicide rate using the 95% level of confidence. […]
# Mutant W4-4 = assay: as above; conditions: two weeks after treatment
# Procedure: as §3
# mutant W20 [4] = assay: as above; conditions: two weeks after treatment
# Procedure: as §3
# mutant line W17 = assay: Test B postemergence cross resistance test; conditions: Glycine max, post-emergence; for soybean crop injury (%) at 2 g/ha: W17, 2 g/ha postemergence
# How it was run: (§4)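 Mutant lines and Williams 82 plants, two per 10 cm pot, were sprayed postemergence at the second trifoliolate stage with 11 ALS inhibitors (eight sulfonylureas, three imidazolinones), each at two rates. Injury was rated two to three times per pot over three weeks in the greenhouse, then averaged.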
# mutant line W23 = assay: Test B postemergence cross resistance test; conditions: Glycine max, post-emergence
# How it was run: as §4
# Williams 82 [5] = assay: Test B postemergence cross resistance test; conditions: Glycine max, post-emergence; for soybean crop injury at 2 g/ha: Wm 82, 2 g/ha postemergence
# How it was run: as §4
# mutant line W19 = assay: Test B postemergence cross resistance test; conditions: Glycine max, post-emergence; for percent soybean crop injury at 2 g/ha: W19, 2 g/ha postemergence
# How it was run: as §4
# mutant line W28 = assay: Test B postemergence cross resistance test; conditions: Glycine max, post-emergence; for mean % injury to soybean at 2 g/ha: W28, 2 g/ha postemergence
# How it was run: as §4
# mutant line W4 = assay: Test B postemergence cross resistance test; conditions: Glycine max, post-emergence; for % crop injury at 2 g/ha: W4, 2 g/ha postemergence
# How it was run: as §4
# wild type soybeans = assay: Pilot studies, threshold concentration in hydroponic system; conditions: 100 mg/L used to irrigate the hydroponic system
# From the text: (§5) The same sulfonylurea concentrations would select only highly resistant plants.
# [6] = test system: mutants that have heritable sulfonylurea tolerance; assay: as above; conditions: sulfonylurea tolerant mutants, 100 mg/L used to irrigate the hydroponic system
# From the text: as §5
structure (smiles),measurement,setting,value
"COC(=O)c1cccnc1S(=O)(=O)NC(=O)Nc1nc(OC)cc(OC)n1 [Compound 8, Methyl 2-[[[[(4,6-dimethoxy-2-pyrimidinyl)amino]carbonyl]amino]sulfonyl]-3-pyridinecarboxylate]",mean % injury,"Williams 82 [1]; WM 82, 8 g/ha postemergence",95%
same,mean % injury,"Williams 82 [1]; WM 82, 32 g/ha postemergence",95%
same,mean % injury,"mutant W19; W19, 8 g/ha postemergence",84%
same,mean % injury,"mutant W19; W19, 32 g/ha postemergence",95%
same,mean % injury,Mutant 1-184A; 8 g/ha postemergence,93%
same,mean % injury,Mutant 1-184A; 32 g/ha postemergence,92%
same,mean % injury,"mutant W20 [2]; W20, 8 g/ha postemergence",93%
same,mean % injury,"mutant W20 [2]; W20, 32 g/ha postemergence",97%
same,seedling development,W20 seedlings,would not develop true leaves
same,percent crop injury at 0.5 g/ha,"mutant line W20; W20, 0.5 g/ha postemergence",19%
same,percent crop injury at 2 g/ha,"mutant line W20; W20, 2 g/ha postemergence",89%
same,mean % injury,"Williams 82 [3]; WM82, 4 g/ha postemergence",90%
same,mean % injury,"Williams 82 [3]; WM82, 16 g/ha postemergence",95%
same,mean % injury,"Williams 82 [3]; WM82, 32 g/ha postemergence",95%
same,mean % injury,"Mutant W4-4; W4-4, 4 g/ha postemergence",48%
same,mean % injury,"Mutant W4-4; W4-4, 16 g/ha postemergence",48%
same,mean % injury,"Mutant W4-4; W4-4, 32 g/ha postemergence",65%
same,mean % injury,"mutant W20 [4]; W20, 4 g/ha postemergence",90%
same,mean % injury,"mutant W20 [4]; W20, 16 g/ha postemergence",93%
same,mean % injury,"mutant W20 [4]; W20, 32 g/ha postemergence",95%
same,soybean crop injury (%) at 0.5 g/ha,"mutant line W17; W17, 0.5 g/ha postemergence",26%
same,soybean crop injury (%) at 2 g/ha,mutant line W17,83%
same,percent soybean injury at 0.5 g/ha,"mutant line W23; W23, 0.5 g/ha postemergence",21%
same,percent soybean injury at 2 g/ha,"mutant line W23; W23, 2 g/ha postemergence",70%
same,soybean crop injury at 0.5 g/ha,"Williams 82 [5]; Wm 82, 0.5 g/ha postemergence",93%
same,soybean crop injury at 2 g/ha,Williams 82 [5],98%
same,percent soybean crop injury at 0.5 g/ha,"mutant line W19; W19, 0.5 g/ha postemergence",29%
same,percent soybean crop injury at 2 g/ha,mutant line W19,85%
same,mean % injury to soybean at 0.5 g/ha,"mutant line W28; W28, 0.5 g/ha postemergence",53%
same,mean % injury to soybean at 2 g/ha,mutant line W28,84%
same,% crop injury at 0.5 g/ha,"mutant line W4; W4, 0.5 g/ha postemergence",39%
same,% crop injury at 2 g/ha,mutant line W4,81%
"COc1nc(C)nc(NC(=O)NS(=O)(=O)c2ccccc2Cl)n1 [Compound 1, 2-chloro-N-[[(4-methoxy-6-methyl-1,3,5-triazin-2-yl)amino]carbonyl]benzenesulfonamide]",mean % injury,"Williams 82 [1]; WM 82, 8 g/ha postemergence",97%
same,mean % injury,"mutant W19; W19, 8 g/ha postemergence",12%
same,mean % injury,Mutant 1-184A; 8 g/ha postemergence,97%
same,mean % injury,"mutant W20 [2]; W20, 8 g/ha postemergence",13%
same,percent crop injury at 8 g/ha,"mutant line W20; W20, 8 g/ha postemergence",0%
same,soybean crop injury (%) at 2 g/ha,mutant line W17,0%
same,soybean crop injury (%) at 8 g/ha,"mutant line W17; W17, 8 g/ha postemergence",0%
same,percent soybean injury at 8 g/ha,"mutant line W23; W23, 8 g/ha postemergence",0%
same,soybean crop injury at 2 g/ha,Williams 82 [5],98%
same,soybean crop injury at 8 g/ha,"Williams 82 [5]; Wm 82, 8 g/ha postemergence",100%
same,percent soybean crop injury at 2 g/ha,mutant line W19,0%
same,percent soybean crop injury at 8 g/ha,"mutant line W19; W19, 8 g/ha postemergence",13%
same,mean % injury to soybean at 2 g/ha,mutant line W28,0%
same,mean % injury to soybean at 8 g/ha,"mutant line W28; W28, 8 g/ha postemergence",0%
same,% crop injury at 2 g/ha,mutant line W4,0%
same,% crop injury at 8 g/ha,"mutant line W4; W4, 8 g/ha postemergence",0%
same,leaf and root development,wild type soybeans,consistently stunt or inhibit leaf and root development
same,leaf formation,[6],allow unifoliolate (but not trifoliolate) formation
